Experiment: Water solubility / residual water in 1-perfluorobutyl-pentane
Format: physicochemical
Conditions: based on weight of 1-perfluorobutylpentane
From the text: The predominant contribution to residual water content in the composition can be attributed to water sorption or association with ciclosporin (e.g. not limited to, but for example derived from manufacturing process, or its transport and storage).
The 1-perfluorobutyl-pentane as featured in any of the compositions or methods described herein is preferably essentially free of water. In such case, the presence of residual water in the composition according to the invention is derived from the ciclosporin or optionally, if present, one or more excipients that is functionally not a co-solvent.

SMILES: CCCCCC(F)(F)C(F)(F)C(F)(F)C(F)(F)F [F4H5, 1-perfluorobutyl-pentane]
- water solubility in 1-perfluorobutylpentane: less than 1.20×10^−5 wt %

Reference: patent publication US11400132B2 (NOVALIQ GMBH, priority 2016, dated 2022)
